# Legend:
# [1] = system: ovariectomised rats, brain tissue; assay: Lipid peroxidation parameters in brain tissue of ovariectomised rats (antioxidant action); assay type: in vivo; conditions: per os in olive oil, single dose of 5 mg per 100 g of body weight the day before euthanasia
# Protocol: The experimental conditions: compound XVI was given per os in olive oil as a single dose of 5 mg per 100 g of body weight the day before euthanasia. […] Control group of animals were treated using olive oil without steroids.
# Schiff bases contain was calculated in conventional units according to fluorometric data; triene conjugates—in conventional units—according to the spectrophotometer data under wave-length 274 nm.
# ovariectomised rats [2] = assay: Ovariectomized rat assay: body weight, uterus, femur, serum cholesterol and triglycerides; assay type: in vivo, rats (Sprague Dawley); conditions: n = 20
# Protocol: (§1) The investigation of biological properties of steroids was carried out on sham operated and ovariectomized rats (Sprague Dawley) under the following conditions: compounds IV, XII, XIV and XV were given in olive oil, daily for 35 days.
# ovariectomised rats [3] = assay: Effects on serum lipids and liver lipids of ovariectomised rats; assay type: in vivo, rats (Sprague Dawley)
# Protocol: as §1
# [4] = system: female mouse-hybrids F1CBAxC57BI6; assay: Influence on spleen, antibody-forming cells and thymus of mice after single per os dose; assay type: in vivo; conditions: female mouse-hybrids F1CBAxC57BI6, per os single-dosing administration (5 mg/kg of BW)
# Excerpt: Method is described in the article.
# [5] = Table 5, 0.05 mg/kg of body weight
# [6] = Table 1, 0.5 mg/kg BW in olive oil, daily for 35 days
# [7] = Table 2, 0.1 mg/kg intramuscular injection
# [8] = Table 3, 0.2 mg/kg intramuscular injection
# [9] = Table 3, 0.5 mg/kg intramuscular injection
# [10] = Table 5, 5 mg/kg of body weight in olive oil, daily for 35 days
structure (smiles),measurement,setting,value
COc1ccc2c(c1)O[C@H](C)[C@H]1[C@@H]2CC[C@]2(C)[C@@H](OC(C)=O)CCC[C@@H]12 [Compound XVI],Triene conjugates,[1]; control 0.209 ± 0.022,0.152 ± 0.022 conventional units/mg of phospholipids
same,Klein coefficient,[1]; control 0.70 ± 0.01,0.71 ± 0.05
same,Malonic dialdehyde,[1]; control 1.65 ± 0.14,1.80 ± 0.18 nmol/mg of phospholipids
same,Diene conjugates,[1]; control 12.2 ± 0.7,9.5 ± 1.0 nmol/mg of phospholipids
same,Schiff bases,[1]; control 129 ± 10,96 ± 6 conventional units/mg of phospholipids
"C#C[C@]1(O)CC[C@H]2[C@@H]3CCc4cc(O)ccc4[C@H]3CC[C@@]21C [EE, 17α-Ethynylestradiol, reference compound]",Change of body weight,"ovariectomised rats [2]; Table 1, 0.1 mg/kg BW",23.0 ± 4.3 g
same,Serum cholesterol,"ovariectomised rats [2]; Table 1, 0.1 mg/kg BW",30.0 ± 1.7 mg/dL
same,Uterus weight index,"ovariectomised rats [2]; Table 1, 0.1 mg/kg BW",154.0 ± 7.8 mg/100 g BW
same,Change of body weight,ovariectomised rats [2]; [5],3 ± 4 g
same,Femur weight index (ash femur weight/wet femur weight),ovariectomised rats [2]; [5],0.436 ± 0.004
same,Serum cholesterol,ovariectomised rats [2]; [5],45.5 ± 2.1 mg/dL
same,Serum triglycerides,ovariectomised rats [2]; [5],129.8 ± 14.5 mg/dL
same,Uterus weight index,ovariectomised rats [2]; [5],164 ± 11 mg/100 g BW
"CC(=O)Oc1ccc2c(c1)OC[C@H]1[C@@H]2CC[C@]2(C)C(=O)CC[C@@H]12 [compound IV, 6-Oxa-8α-estrone acetate]",Change of body weight,ovariectomised rats [2]; [6],45.5 ± 3.8 g
same,Femur weight index (ash femur weight/wet femur weigh),ovariectomised rats [2]; [6],0.4219 ± 0.005 mg/mg
same,Serum cholesterol,ovariectomised rats [2]; [6],51.9 ± 1.7 mg/dL
same,Uterus weight index,ovariectomised rats [2]; [6],71.8 ± 3.6 mg/100 g BW
"COc1ccc2c(c1)OC[C@H]1[C@@H]2CC[C@]2(C)C(=O)CCC[C@@H]12 [compound XII, 6-Oxa-D-homo-8α-estrone methyl ether]",Liver lipids Cholesterol,ovariectomised rats [3]; [7],2.69 ± 0.06 mg/g
same,Liver lipids Triglycerides,ovariectomised rats [3]; [7],5.21 ± 0.49 mg/g
same,Serum lipids Cholesterol,ovariectomised rats [3]; [7],1.68 ± 0.06 mmol/L
same,Serum lipids Triglycerides,ovariectomised rats [3]; [7],0.42 ± 0.05 mmol/L
same,Liver lipids Cholesterol,ovariectomised rats [3]; [8],2.69 ± 0.06 mg/g
same,Liver lipids Triglycerides,ovariectomised rats [3]; [8],3.72 ± 0.51 mg/g
same,Serum lipids Cholesterol,ovariectomised rats [3]; [8],1.04 ± 0.12 mmol/L
same,Serum lipids Triglycerides,ovariectomised rats [3]; [8],0.85 ± 0.05 mmol/L
same,Liver lipids Cholesterol,ovariectomised rats [3]; [9],2.31 ± 0.06 mg/g
same,Liver lipids Triglycerides,ovariectomised rats [3]; [9],3.17 ± 0.32 mg/g
same,Serum lipids Cholesterol,ovariectomised rats [3]; [9],0.85 ± 0.08 mmol/L
same,Serum lipids Triglycerides,ovariectomised rats [3]; [9],0.94 ± 0.05 mmol/L
same,Liver lipids Cholesterol,"ovariectomised rats [3]; Table 4, 0.2 mg/kg per os",3.45 ± 0.15 mg/g
same,Liver lipids Triglycerides,"ovariectomised rats [3]; Table 4, 0.2 mg/kg per os",7.1 ± 0.6 mg/g
same,Serum lipids Cholesterol,"ovariectomised rats [3]; Table 4, 0.2 mg/kg per os",0.99 ± 0.08 mmol/L
same,Serum lipids Triglycerides,"ovariectomised rats [3]; Table 4, 0.2 mg/kg per os",1.45 ± 0.14 mmol/L
"COc1ccc2c(c1)O[C@H](C)[C@H]1[C@@H]2CC[C@]2(C)C(=O)CCC[C@@H]12 [compound XIV, 7β-Methyl-D-homo-6-oxa-8α-estrone methyl ether]",Change of body weight,ovariectomised rats [2]; [10],51 ± 4 g
same,Femur weight index (ash femur weight/wet femur weight),ovariectomised rats [2]; [10],0.392 ± 0.004
same,Serum cholesterol,ovariectomised rats [2]; [10],54.5 ± 2.8 mg/dL
same,Serum triglycerides,ovariectomised rats [2]; [10],62.2 ± 5.2 mg/dL
same,Uterus weight index,ovariectomised rats [2]; [10],34 ± 2 mg/100 g BW
C[C@H]1Oc2cc(O)ccc2[C@H]2CC[C@]3(C)C(=O)CCC[C@H]3[C@H]21 [compound XV],content of antibody-forming cells,[4],does not influence
same,mass and number of cells in spleen,[4],does not influence
same,mass and number of cells in the thymus,[4],does not influence
same,Change of body weight,ovariectomised rats [2]; [10],48 ± 4 g
same,Femur weight index (ash femur weight/wet femur weight),ovariectomised rats [2]; [10],0.390 ± 0.004
same,Serum cholesterol,ovariectomised rats [2]; [10],52.2 ± 2.6 mg/dL
same,Uterus weight index,ovariectomised rats [2]; [10],33 ± 3 mg/100 g BW

# From US20110160296A1, “PREPARATION OF 6-OXA-8ALPHA-STEROID ESTROGEN ANALOGUES - A NEW GROUP OF UNNATURAL ESTROGENS AND THEIR USE IN MEDICINE” (TOPASS GMBH, priority 2007, published 2011)
